Data published in patent US5034317A, “Enzyme controlled release system and organic conjugate reactant” (priority 1987, dated 1991).

Key:
Format in all cases: biochemical
[1] = molecular target: T1, beef liver β-galactosidase (Bos taurus, UniProt Q58D55); experiment: Enzymatic hydrolysis of conjugate reactants by beef liver β-galactosidase; conditions: beef liver β-galactosidase 0.66 units; for Measured Rate of Reaction: 25° C., 10^-3 M
T1 sequence (Q58D55 28-653): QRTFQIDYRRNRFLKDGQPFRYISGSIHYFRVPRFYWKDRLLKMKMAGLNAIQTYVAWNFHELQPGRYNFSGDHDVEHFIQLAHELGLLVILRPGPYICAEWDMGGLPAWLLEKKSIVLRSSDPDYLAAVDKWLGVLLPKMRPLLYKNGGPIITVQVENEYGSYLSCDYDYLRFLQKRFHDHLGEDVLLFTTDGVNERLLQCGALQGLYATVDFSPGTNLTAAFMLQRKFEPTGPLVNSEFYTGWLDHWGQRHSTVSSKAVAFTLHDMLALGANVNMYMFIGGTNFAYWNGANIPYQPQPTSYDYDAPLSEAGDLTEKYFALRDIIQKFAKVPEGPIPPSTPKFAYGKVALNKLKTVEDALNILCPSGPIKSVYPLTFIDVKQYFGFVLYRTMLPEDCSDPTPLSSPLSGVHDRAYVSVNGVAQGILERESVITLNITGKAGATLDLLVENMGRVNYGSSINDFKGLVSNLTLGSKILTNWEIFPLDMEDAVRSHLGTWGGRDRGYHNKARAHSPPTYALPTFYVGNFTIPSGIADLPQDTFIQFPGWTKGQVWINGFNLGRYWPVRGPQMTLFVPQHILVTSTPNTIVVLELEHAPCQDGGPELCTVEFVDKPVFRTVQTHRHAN
Source text: (§1) A major advantage provided by the organic conjugate compositions comprising the present invention is the selective ability to discriminate not only between different classes of enzymes, but also to distinguish the same enzyme obtained from different sources. […] Each of the individual, separately derived, beta-galactosidases were commercially obtained and empirically evaluated using the test protocol described previously in Example 6.

E. coli β-galactosidase = E. coli β-galactosidase (Escherichia coli, UniProt P00722); experiment: Enzymatic hydrolysis of conjugate reactants by E. coli β-galactosidase; conditions: 25° C., 10^-3 M, E. coli β-galactosidase 7.5 units, pH 7.0 (Table 6)
Sequence of E. coli β-galactosidase (P00722 whole entry): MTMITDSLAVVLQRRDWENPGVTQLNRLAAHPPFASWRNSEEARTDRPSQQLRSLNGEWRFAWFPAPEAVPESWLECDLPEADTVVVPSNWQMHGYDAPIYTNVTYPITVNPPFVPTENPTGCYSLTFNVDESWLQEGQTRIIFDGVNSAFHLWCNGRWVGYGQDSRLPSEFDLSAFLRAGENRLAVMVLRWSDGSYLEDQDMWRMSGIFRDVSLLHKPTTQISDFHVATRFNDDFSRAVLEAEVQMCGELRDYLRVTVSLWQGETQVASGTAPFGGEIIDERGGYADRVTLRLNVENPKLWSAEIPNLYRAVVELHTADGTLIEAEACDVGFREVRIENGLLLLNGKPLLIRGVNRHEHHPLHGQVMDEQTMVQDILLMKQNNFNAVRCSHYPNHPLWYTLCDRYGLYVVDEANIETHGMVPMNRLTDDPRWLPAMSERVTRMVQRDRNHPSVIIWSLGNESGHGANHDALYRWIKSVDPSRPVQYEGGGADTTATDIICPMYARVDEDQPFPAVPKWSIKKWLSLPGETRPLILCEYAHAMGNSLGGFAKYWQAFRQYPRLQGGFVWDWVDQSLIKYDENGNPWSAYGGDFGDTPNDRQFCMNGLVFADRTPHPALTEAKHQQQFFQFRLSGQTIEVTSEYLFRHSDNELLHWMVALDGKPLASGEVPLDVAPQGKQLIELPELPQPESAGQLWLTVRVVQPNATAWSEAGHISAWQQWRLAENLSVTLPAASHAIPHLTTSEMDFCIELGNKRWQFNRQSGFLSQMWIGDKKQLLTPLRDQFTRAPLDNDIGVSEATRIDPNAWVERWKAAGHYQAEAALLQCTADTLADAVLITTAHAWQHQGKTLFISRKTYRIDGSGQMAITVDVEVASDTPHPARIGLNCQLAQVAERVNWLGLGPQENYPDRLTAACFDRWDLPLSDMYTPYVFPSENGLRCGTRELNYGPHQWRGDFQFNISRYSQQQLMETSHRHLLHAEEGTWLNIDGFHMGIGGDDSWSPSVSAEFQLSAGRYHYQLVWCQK
Source text: as §1

[2] = molecular target: Aspergillus oryzae β-galactosidase (Aspergillus oryzae, UniProt Q2UCU3); experiment: Enzymatic hydrolysis of conjugate reactants by Aspergillus oryzae β-galactosidase (release of displaceable ligand)
Sequence of Aspergillus oryzae β-galactosidase (Q2UCU3 19-1005): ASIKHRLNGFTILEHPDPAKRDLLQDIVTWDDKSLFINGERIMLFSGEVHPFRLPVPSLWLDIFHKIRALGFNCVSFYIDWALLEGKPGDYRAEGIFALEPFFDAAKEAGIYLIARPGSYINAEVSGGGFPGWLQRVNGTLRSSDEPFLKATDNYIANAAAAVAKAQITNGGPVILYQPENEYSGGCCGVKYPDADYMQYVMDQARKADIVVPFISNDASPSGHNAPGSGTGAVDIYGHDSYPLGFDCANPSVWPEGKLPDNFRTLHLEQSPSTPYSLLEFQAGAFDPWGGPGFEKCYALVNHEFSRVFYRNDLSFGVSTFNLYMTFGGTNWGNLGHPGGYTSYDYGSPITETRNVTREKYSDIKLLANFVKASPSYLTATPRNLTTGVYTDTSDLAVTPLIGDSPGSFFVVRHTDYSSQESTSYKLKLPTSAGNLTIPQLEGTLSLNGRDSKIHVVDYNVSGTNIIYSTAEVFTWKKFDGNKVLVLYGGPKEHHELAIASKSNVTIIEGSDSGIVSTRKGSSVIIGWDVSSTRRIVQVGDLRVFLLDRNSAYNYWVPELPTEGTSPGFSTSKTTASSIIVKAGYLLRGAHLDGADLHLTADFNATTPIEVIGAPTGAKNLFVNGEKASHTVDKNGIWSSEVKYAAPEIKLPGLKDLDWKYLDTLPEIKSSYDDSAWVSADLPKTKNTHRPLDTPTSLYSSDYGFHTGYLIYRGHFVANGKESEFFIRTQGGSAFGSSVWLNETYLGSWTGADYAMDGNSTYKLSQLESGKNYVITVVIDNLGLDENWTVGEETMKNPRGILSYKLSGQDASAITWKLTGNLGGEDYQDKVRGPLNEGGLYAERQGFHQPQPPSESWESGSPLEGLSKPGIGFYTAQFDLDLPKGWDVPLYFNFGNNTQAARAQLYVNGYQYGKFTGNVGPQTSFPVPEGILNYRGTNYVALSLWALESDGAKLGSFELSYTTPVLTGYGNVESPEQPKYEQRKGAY
Source text: as §1

[3] = molecular target: Aspergillus oryzae Beta galactosidase (Aspergillus oryzae, UniProt Q2UCU3); experiment: Spectrofluorimetric detection of 1.0×10^-12 M enzyme with conjugate substrate
Sequence of Aspergillus oryzae Beta galactosidase (Q2UCU3 19-1005): as above
Description: Experimental conditions: Ten microliters of 1.0×10^-10 M Aspergillus oryzae Beta galactosidase (Cal Biochem) in 100 mM citrate phosphate, pH 5, with 0.05% w/v gelatin (Buffer A) was added to one milliliter of 1.6 mM compound 15 in Buffer A, yielding a final enzyme concentration of 1.0×10^-12 M. One half milliliter of this reaction mixture was monitored in a spectrofluorimeter in a two millimeter cuvette with instrument settings of 540 nm excitation, 580 emission and 5 nm slit widths. The signal was measured on a chart recorder at a speed of one centimeter per minute and at a sensitivity setting that gave fifteen percent deflection with 1.7×10^-7 M Sulforhodamine 101 in ethanol.

[4] = reactant 1.7 × 10^-5 M, temperature 36.5, 0.85 units Aspergillus oryzae β-galactosidase, pH 7.0 (Table 5)

SMILES	Measured Rate of Reaction ([1]; pH 5.5 (Table 6)) [µmol/min]	Measured Rate of Reaction ([1]; pH 7.0 (Table 6)) [µmol/min]	Measured Rate of Reaction (E. coli β-galactosidase) [µmol/min]	Measured Rate of Reaction ([2]; 25° C., 10^-3 M, Asp. ory. β-galactosidase 0.5 units, pH 5.5 (Table 6)) [µmol/min]	Measured Rate of Reaction ([2]; 25° C., 10^-3 M, Asp. ory. β-galactosidase 0.85 units, pH 7.0 (Table 6)) [µmol/min]	Measured Rate of Reaction [2, 4] [µmol/min]	Measured Rate of Reaction ([2]; reactant 10^-3 M, temperature 25, 0.5 units Aspergillus oryzae β-galactosidase, pH 5.5 (Table 5)) [µmol/min]	Measured Rate of Reaction ([2]; reactant 10^-3 M, temperature 25, 0.85 units Aspergillus oryzae β-galactosidase, pH 7.0 (Table 5)) [µmol/min]	Measured Rate of Reaction ([2]; reactant 10^-3 M, temperature 25, 1.0 units Aspergillus oryzae β-galactosidase, pH 5.5 (Table 5)) [µmol/min]	Measured Rate of Reaction ([2]; reactant 10^-3 M, temperature 25, 4.2 units Aspergillus oryzae β-galactosidase, pH 7.0 (Table 5)) [µmol/min]	signal generated by the substrate solution alone (no enzyme) ([3]; 1.6 mM substrate in Buffer A pH 5, without enzyme, fluorescence over time)	increase in deflection (fluorescence signal) of the enzyme reaction mixture ([3]; 1.6 mM substrate, 1.0×10^-12 M enzyme, 100 mM citrate phosphate pH 5 with 0.05% gelatin, ten minute interval, 540 nm excitation, 580 emission)	Measured Rate of Reaction (in words: hydrolysis after 4 days) ([1]; 36.5° C., 1.7 × 10^-5 M, pH 7.0, cell reads 'incomplete hydro-lysis after 4 days' (Table 6))	Measured Rate of Reaction ([2]; 36.5° C., 1.7 × 10^-5 M, Asp. ory. β-galactosidase 0.85 units, pH 7.0 (Table 6)) [µmol/min]
CCN(C(=O)Oc1ccc([N+](=O)[O-])cc1)c1cc(S(=O)(=O)N(C)C)ccc1O[C@@H]1O[C@H](CO)[C@H](O)[C@H](O)[C@H]1O [Compound 6, 2-[N-ethyl N-carbo (p-nitrophenoxy)]-4-dimethylamino sulfonyl phenyl-β-D-galactopyranoside]	0.0094	0.00075	0.00006	0.028	0.0091	0.0065	0.028	0.009	0.066	0.039				
CCN(C(=O)Oc1ccc2nc3ccc(=O)cc-3oc2c1)c1cc(S(=O)(=O)N2CCN(C(=O)CCC(=O)O)CC2)ccc1O[C@@H]1O[C@H](CO)[C@H](O)[C@H](O)[C@H]1O [Compound 15]											No increase in the signal	one and one half percent increase in deflection		
CCN(C(=O)Oc1ccc2nc3ccc(=O)cc-3oc2c1)c1cc(S(=O)(=O)N(C)C)ccc1O[C@@H]1O[C@H](CO)[C@H](O)[C@H](O)[C@H]1O [Compound 8, 2-[N-ethyl-N-carbo (resorufinyl)]-4-dimeehylamino sulfonylphenyl-β-D-galactopyranoside]						0.0015							incomplete	0.0015
